The values below come from patent publication US20170190705A1, “Compositions and Methods for Inhibiting BMP” (THE BRIGHAM AND WOMAN'S HOSPITAL, INC., priority 2014, published 2017).

Holding throughout (format): biochemical
One experiment concerns the target T1, JAK3 (Homo sapiens, UniProt P52333).
T1 sequence (P52333 1-1124): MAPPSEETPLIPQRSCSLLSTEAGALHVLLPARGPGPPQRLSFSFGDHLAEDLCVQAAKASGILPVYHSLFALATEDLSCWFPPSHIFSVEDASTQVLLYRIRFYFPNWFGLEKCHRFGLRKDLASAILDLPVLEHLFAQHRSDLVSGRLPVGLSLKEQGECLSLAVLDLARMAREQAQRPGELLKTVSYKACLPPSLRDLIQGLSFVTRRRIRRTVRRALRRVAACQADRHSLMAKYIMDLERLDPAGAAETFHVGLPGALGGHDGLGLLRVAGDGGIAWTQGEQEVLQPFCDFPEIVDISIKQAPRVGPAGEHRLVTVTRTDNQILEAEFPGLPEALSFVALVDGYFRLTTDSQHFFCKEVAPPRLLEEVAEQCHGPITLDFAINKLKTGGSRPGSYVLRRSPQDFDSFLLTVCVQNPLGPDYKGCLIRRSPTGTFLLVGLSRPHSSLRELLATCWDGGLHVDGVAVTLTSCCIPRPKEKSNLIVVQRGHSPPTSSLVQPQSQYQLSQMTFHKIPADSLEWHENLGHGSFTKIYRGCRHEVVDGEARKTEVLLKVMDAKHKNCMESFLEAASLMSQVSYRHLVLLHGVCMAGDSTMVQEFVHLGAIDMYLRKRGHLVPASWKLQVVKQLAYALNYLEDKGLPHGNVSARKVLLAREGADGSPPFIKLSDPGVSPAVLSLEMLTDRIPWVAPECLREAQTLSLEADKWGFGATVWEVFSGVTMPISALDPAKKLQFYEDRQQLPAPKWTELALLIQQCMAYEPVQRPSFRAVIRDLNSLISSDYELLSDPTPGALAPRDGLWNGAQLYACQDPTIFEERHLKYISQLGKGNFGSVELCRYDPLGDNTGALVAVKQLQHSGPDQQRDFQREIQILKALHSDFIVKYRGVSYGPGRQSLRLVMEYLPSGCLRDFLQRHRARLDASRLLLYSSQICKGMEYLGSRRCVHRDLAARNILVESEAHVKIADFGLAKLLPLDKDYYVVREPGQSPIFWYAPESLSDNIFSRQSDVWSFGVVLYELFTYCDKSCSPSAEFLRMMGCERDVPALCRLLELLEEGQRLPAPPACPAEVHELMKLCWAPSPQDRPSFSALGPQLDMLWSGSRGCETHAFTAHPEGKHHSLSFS
The experiment is described as follows: Kinome profiling JAK3. The following applies: read-out: Inhibitory activity JAK3; for inhibition at 0.1 µM: 100 nM. Here is the method: (§1) . The kinome-wide selectivity was determined following the methods previously reported by Mohedas et al., ACS Chem Biol 2013, 8, 1291-1302 and Sanvitale et al., PLoS One 2013, 8, e62721.

The target of another experiment is T2, PDK1 (Homo sapiens, UniProt O15530).
T2 sequence (O15530 1-556): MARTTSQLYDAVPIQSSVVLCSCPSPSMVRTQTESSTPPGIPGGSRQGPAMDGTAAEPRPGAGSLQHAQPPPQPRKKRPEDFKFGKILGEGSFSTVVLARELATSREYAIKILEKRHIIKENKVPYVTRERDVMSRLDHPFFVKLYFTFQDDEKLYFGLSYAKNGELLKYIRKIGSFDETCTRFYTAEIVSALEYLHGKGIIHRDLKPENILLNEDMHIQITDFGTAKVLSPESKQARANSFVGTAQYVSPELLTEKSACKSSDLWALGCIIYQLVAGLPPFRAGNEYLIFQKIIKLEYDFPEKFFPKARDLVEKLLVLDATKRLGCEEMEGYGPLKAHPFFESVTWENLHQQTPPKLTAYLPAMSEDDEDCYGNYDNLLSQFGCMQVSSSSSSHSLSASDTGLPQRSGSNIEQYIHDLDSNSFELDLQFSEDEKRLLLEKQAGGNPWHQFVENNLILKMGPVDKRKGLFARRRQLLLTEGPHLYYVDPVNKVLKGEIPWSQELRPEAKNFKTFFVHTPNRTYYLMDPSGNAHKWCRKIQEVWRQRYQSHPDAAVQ
The experiment is described as follows: Kinome profiling PDK1. The following applies: read-out: Inhibitory activity PDK1; for inhibition at 0.1 µM: 100 nM. Here is the method:
as §1

Another experiment addresses T3, AURORA-A (Homo sapiens, UniProt O14965).
T3 sequence (O14965 1-403): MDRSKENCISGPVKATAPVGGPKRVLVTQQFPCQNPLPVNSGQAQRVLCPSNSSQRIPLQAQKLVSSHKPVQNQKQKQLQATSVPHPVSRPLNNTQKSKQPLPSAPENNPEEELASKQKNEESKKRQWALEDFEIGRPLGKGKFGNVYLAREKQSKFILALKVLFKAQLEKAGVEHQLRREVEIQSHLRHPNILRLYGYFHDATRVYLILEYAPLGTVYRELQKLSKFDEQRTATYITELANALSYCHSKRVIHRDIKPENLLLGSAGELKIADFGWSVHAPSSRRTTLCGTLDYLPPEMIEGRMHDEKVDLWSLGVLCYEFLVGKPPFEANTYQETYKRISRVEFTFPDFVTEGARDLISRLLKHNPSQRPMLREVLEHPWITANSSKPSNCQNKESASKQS
Description: Kinome profiling AURORA-A. Particulars: read-out: Inhibitory activity AURORA-A; for inhibition at 0.1 µM: 100 nM. The protocol: as §1

For another experiment, the target named is MAPKAPK3 (Homo sapiens, UniProt Q16644). The experiment is described as follows: Kinome profiling MAPKAPK3. Particulars: read-out: Inhibitory activity MAPKAPK3; for inhibition at 0.1 µM: 100 nM. Here is the method:
as §1

In another experiment the target is AMP-A1B1G1 (Homo sapiens, UniProt Q13131). The experiment is described as follows: Kinome profiling AMP-A1B1G1. Particulars: read-out: Inhibitory activity AMP-A1B1G1; for inhibition at 0.1 µM: 100 nM. Here is the method: as §1
Chain of AMP-A1B1G1 (Q13131 whole entry): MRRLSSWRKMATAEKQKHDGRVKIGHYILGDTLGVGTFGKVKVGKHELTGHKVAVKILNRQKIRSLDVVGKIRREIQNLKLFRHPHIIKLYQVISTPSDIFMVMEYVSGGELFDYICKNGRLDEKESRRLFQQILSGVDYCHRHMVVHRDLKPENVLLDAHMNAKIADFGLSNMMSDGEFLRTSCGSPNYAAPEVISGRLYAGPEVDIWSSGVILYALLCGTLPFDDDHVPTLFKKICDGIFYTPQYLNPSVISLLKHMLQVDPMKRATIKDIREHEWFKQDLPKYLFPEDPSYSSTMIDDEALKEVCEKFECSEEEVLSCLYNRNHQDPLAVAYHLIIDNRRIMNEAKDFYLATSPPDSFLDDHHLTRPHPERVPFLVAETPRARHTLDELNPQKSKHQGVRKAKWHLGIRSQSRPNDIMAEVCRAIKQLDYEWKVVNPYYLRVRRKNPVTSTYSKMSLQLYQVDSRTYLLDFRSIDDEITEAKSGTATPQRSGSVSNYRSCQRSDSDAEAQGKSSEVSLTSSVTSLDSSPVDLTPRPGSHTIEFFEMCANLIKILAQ
Chain of AMP-A1B1G1 (Q9Y478 whole entry partner): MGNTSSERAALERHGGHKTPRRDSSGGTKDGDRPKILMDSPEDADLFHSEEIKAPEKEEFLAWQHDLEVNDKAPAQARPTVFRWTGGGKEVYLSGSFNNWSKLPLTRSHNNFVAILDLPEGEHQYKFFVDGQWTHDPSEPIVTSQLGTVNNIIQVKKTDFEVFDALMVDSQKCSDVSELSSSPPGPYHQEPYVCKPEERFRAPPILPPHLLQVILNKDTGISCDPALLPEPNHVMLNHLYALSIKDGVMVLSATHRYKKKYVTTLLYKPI
Chain of AMP-A1B1G1 (P54619 whole entry partner): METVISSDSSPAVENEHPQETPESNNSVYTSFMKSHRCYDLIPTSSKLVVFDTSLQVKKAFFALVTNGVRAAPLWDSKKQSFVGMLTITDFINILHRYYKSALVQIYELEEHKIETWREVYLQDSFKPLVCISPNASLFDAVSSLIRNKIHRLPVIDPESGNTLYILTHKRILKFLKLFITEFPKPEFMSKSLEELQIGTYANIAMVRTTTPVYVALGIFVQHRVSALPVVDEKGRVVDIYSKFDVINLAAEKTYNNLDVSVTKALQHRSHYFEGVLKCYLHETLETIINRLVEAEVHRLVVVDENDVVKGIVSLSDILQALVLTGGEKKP

Chain of MAPKAPK3 (Q16644 whole entry): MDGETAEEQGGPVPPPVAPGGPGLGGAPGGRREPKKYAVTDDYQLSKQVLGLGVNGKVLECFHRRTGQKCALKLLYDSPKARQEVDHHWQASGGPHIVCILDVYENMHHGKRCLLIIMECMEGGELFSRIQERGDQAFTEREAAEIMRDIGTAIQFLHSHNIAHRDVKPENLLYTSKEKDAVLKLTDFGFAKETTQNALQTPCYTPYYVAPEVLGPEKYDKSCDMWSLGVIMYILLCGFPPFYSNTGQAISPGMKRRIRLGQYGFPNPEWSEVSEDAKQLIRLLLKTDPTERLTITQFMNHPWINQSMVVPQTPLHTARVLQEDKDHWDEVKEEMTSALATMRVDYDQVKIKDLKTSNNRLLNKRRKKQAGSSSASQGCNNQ

`COc1cc(-c2cc(-c3ccc(N4CCNCC4)cc3)cnc2N)cc(OC)c1OC` [Compound 15, 5-(4-(piperazin-1-yl)phenyl)-3-(3,4,5-trimethoxyphenyl)pyridin-2-amine]: the inhibition at 0.1 µM was 0% on JAK3; 3% on PDK1; 2% at AURORA-A; 1% on MAPKAPK3; 0% at AMP-A1B1G1. Besides, the inhibition at 1 µM is 3% on JAK3; 3% on PDK1; 3% on AURORA-A; 1% at MAPKAPK3; 5% on AMP-A1B1G1.
With `COc1cc(-c2cc(-c3ccc(N4CCNCC4)cc3)cnc2C)cc(OC)c1OC` [Compound 10, 1-(4-(6-methyl-5-(3,4,5-trimethoxyphenyl)pyridin-3-yl)phenyl)piperazine], the inhibition at 0.1 µM was 3% on JAK3; 3% at PDK1; 2% at AURORA-A; -1% on MAPKAPK3; 5% at AMP-A1B1G1. In addition, the inhibition at 1 µM on JAK3 is 3%; on PDK1, 6%; on AURORA-A, 3%; at MAPKAPK3, 0%; on AMP-A1B1G1, 1%.
